In patent US6185453A, “Iontophoretic delivery of integrin inhibitors” (DuPont Pharmaceuticals Company, priority 1997, dated 2001):
Where “and” joins values, the source holds several entries; their conditions need not be identical. Equal values may be shown once. Where a name gives a salt, the structure may show the parent alone. Blank lines part the entries; values can stand above or below the compound they belong to.

Columns and labels:
[1] = In vivo swine iontophoretic delivery / IV infusion, plasma concentrations (LC-MS); set-up: species or system Yorkshire swine; conditions: for in vivo delivery rate: 10 mg/mL, by comparison with IV infusion of Compound B
Description: In each experiment, the patches were loaded with drug solution immediately before application to the skin of the animals. Unanesthetized Yorkshire swine with weights from about 20 to 35 kg were used. The skin sites receiving the patches were wiped clean with moist gauze pads. Patches were overwrapped with an adhesive, elastic wrap to hold the patches in place. Separate constant current power supplies were provided for each iontophoresis patch system. Current and voltage readings were made and recorded on-board dataloggers. Blood samples were withdrawn from the vena cava through an IV catheter into VACUTAINER™ blood collection tubes containing EDTA. After gentle mixing, the tubes were centrifuged to separate the plasma, which transferred to clean polypropylene tubes and frozen on dry ice. Frozen samples were stored at -80° C. until assayed.
Compound B concentrations in plasma were determined by LC-MS. The patches used were of the monolithic design described above, and having a 2 cm^2 skin coverage area. Patches were filled with solutions containing 10-20 mg/mL Compound A and 154 mM NaCl. […], plasma concentrations of Compound B increased for the first 5-8 hours of dosing and then reached steady-state.Steady-state plasma concentrations of approximately 1-2 ng/mL were attained. After an intravenous infusion of Compound B at 10 μg/hr, steady-state plasma concentrations of Compound B were also approximately 1-2 ng/mL. Therefore, the transdermal delivery rate at steady-state was approximately 10 μg/hr.
Pigs were also dosed with patches containing 10 mg/mL of Compound A, using currents of 50 and 100 μA. In these studies four patches were used for each pig, for a total skin coverage area of 8 cm^2. […] Actual in vivo delivery rates were estimated by comparison with plasma concentrations after intravenous infusion of Compound B. The 50 μA current delivered Compound A at approximately 25 μg/hr, and the 100 μA current delivered Compound A at approximately 40 μg/hr.

[2] = In vitro excised porcine skin iontophoretic delivery (flow-through diffusion cell); format: in vitro ADME; conditions: for Dose Delivered: 18 hours iontophoresis, 2 cm^2 patch
Method: The iontophoretic delivery of a representative GPIIb/IIIa inhibitor compound, Compound A, was carried out in a flow-through diffusion cell in vitro excised skin delivery system. The transdermal patch design used in these studies included an absorbent drug reservoir with 2 cm^2 active area of skin contact and a volume of 0.3 mL. The drug reservoir compartment was separated from the electrode compartment by a semi-permeable membrane with a molecular weight cutoff of 100. The electrode compartment included a silver […] and a cation exchange media in a hydrogel matrix. The drug reservoir compartment was filled with dosing solution just before application to the skin. A silver-silver chloride mesh return cathode was located upstream of the polycarbonate flow-through cells. Freshly dermatomed (1 mm) porcine skin was mounted in the cells on a porous support polyethylene. The patches included an absorbent reservoir in contact with silver and silver chloride electrodes. They were dosed with aqueous solutions of the drug and then placed on top of the excised skin. The patches were secured by a spring loaded mechanism which maintained even pressure over the patch. The cells were "perfused" by means of a peristaltic pump which pulls receiver solution through them. Effluents from the cells were collected with a fraction collector. Flow rates were typically 0.25 mL/min. The receiver solution was an isotonic pH 7.4 buffered saline solution containing 10 mM HEPES, 100 mM NaCl, PEG 400, and a surfactant, Pluronic P-103. Iontophoresis current was provided by a constant current power supplies, and the applied currents and cell voltages were recorded with a data logger. The flux profile vs. time and the cumulative dose delivered with 18 hours of iontophoresis were determined. This was followed by 3 hours where no current was applied. Concentrations of Compound A were determined using a radiolabeled marker or by HPLC. A study was performed using applied currents of 0-800 μA, and concentrations of Compound A in the patch of 50 or 100 mg/mL. Additional studies were performed using lower applied currents, lower concentrations of Compound A in the patch, and dosing solutions containing various concentrations of NaCl. […] At 100 μA the delivery rate of Compound A was approximately 10 μg/hr for the 2 cm^2 surface area, which was also within the targeted range. An alternative patch design, a monolithic patch rather than the membrane separated patch, was also tested. This patch is composed of two layers of absorbent material between which is sandwiched a silver anode.

[3] = iontophoresis of 10 mg/mL Compound A, 50 and 100 μA, four patches (8 cm^2)

- transdermal delivery rate at steady-state ([1]; 20 mg/mL Compound A, 100 μA, 2 cm^2, by comparison with IV infusion): approximately 10 μg/hr
- blood levels, iontophoresis (FIG. 5) compared with constant IV infusion of Compound B (FIG. 4) ([1]; 20 mg/mL, 154 mM NaCl, 200 μA, 2 cm^2 vs IV 10 μg/h): similar
- in vivo delivery rate ([1]; 50 μA, four patches (8 cm^2)): approximately 25 μg/hr
- in vivo delivery rate ([1]; 100 μA, four patches (8 cm^2)): approximately 40 μg/hr
- variability in plasma levels with iontophoresis ([1]; FIG. 5, 20 mg/mL, 154 mM NaCl, 200 μA, 2 cm^2): extremely low
- in vivo conversion to acid form (Compound B) ([1]; in vivo): rapidly converted to its acid form
- skin permeation [2]: very low skin permeation
- Dose Delivered ([2]; 0 μA, 100 mg/mL Compound A (as salt), methanesulfonate salt): 0.2 mg and 0.1 mg
- transdermal delivery rates versus applied current ([2]; 10 mg/mL Compound A, 154 mM NaCl, 0, 25, 50, and 100 μA): proportional to the applied current
- time to maximum delivery ([2]; 50 or 100 mg/mL Compound A, iontophoresis): about 5 hours
- delivery rate ([2]; 100 μA, 10 mg/mL Compound A, 154 mM NaCl, 2 cm^2): approximately 10 μg/hr
- Dose Delivered ([2]; 200 μA, 100 mg/mL Compound A (as salt), methanesulfonate salt): 1.2 mg and 1.1 mg and 1.0 mg
- Dose Delivered ([2]; 400 μA, 50 mg/mL Compound A (as salt)): 1.1 mg
- Dose Delivered ([2]; 800 μA, 50 mg/mL Compound A (as salt), methanesulfonate salt): 2.1 mg and 2.3 mg
- variability in delivery from skin to skin ([2]; FIG. 2, 10 mg/mL, 154 mM NaCl, 50 μA): extremely low
- in vitro delivery versus current ([2]; FIG. 3, 10 mg/mL, 9 mg/mL NaCl, 0-100 μA): proportional to increase in current
- consistency of delivery ([2]; for any specified drug concentration and applied current): generally very consistent
- transdermal delivery ([2]; in the presence of the applied current): greatly increased
- delivery rates ([2]; when the current was turned off): very low levels
- dosing rates ([2]; within the target range, 50 or 100 mg/mL Compound A): 5 to 250 µg/h
Compound: CCCCOC(=O)N[C@@H](CNC(=O)C[C@H]1CC(c2ccc(C(=N)N)cc2)=NO1)C(=O)OC [Compound A, methyl-N^3-[2-{3-(4-formamidinophenyl)-isoxazolin-5(R)-yl}-acetyl]-N^2-(n-butyloxycarbonyl)-2,3-(S)-diaminopropionate methanesulfonate salt]

- steady-state plasma concentrations ([1]; approximately, intravenous infusion of Compound B at 10 μg/hr): 1 to 2 ng/mL
- period of plasma concentration increase before apparent steady-state [1, 3]: first several hours
- plasma concentrations during 24 hours of iontophoretic dosing [1, 3]: fairly constant
- plasma concentrations versus applied current [1, 3]: proportional to the applied current
- time during which plasma concentrations increased before steady-state ([1]; iontophoresis of 20 mg/mL Compound A, 100 μA, 2 cm^2): 5 to 8 h
Compound: CCCCOC(=O)N[C@@H](CNC(=O)C[C@H]1CC(c2ccc(C(=N)N)cc2)=NO1)C(=O)O [Compound B, N^3-[2-{3-(4-formamidinophenyl)-isoxazolin-5(R)-yl}-acetyl]-N^2-(n-butyloxycarbonyl)-2,3-(S)-diaminopropanoic acid]
